Assay results reported in paper PMC9146228, “Bioactivity of Novel Pyrazole-Thiazolines Scaffolds against Trypanosoma cruzi: Computational Approaches and 3D Spheroid Model on Drug Discovery for Chagas Disease” (Pharmaceutics, 2022).

Tested on: T. cruzi (Dm28c-Luc) trypomastigotes
Experiment: microbe, parasite or virus in culture
Type: cell-based, Trypanosoma cruzi
Conditions: Trypanosoma cruzi, 24 h, Dm28c-Luc, 24 h, mean ± SD; read-out: Trypanocidal Activity Trypomastigotes IC50
Protocol: The screening assays were performed with T. cruzi clone Dm28c (TcI) genetically modified to express luciferase gene (Dm28c-Luc), kindly provided by Dr. Cristina Henriques. Trypomastigotes were isolated from T. cruzi-infected Vero cell monolayers (10:1 parasites/host cell ratio). On the 4th day post-infection (dpi), free trypomastigotes in the culture supernatant were harvested, and the number of parasites/mL was quantified in a Neubauer chamber.
The trypanocidal activity of the pyrazole-thiazoline derivatives was evaluated against trypomastigote and intracellular amastigote forms of T. cruzi (Dm28c-Luc). Tissue-derived trypomastigotes (1 × 10^6 parasites/well) were incubated with pyrazole-thiazoline derivatives and Bz in different concentrations (0.41–100 µM) for 24 h at 37 °C in a humidified atmosphere and 5% CO2. The parasite viability was determined by the addition of luciferin (300 µg/mL), followed by luminescence detection on the GloMax microplate reader (Promega Corporation, Madison, WI, USA).
(§1) After 72 h of treatment, luciferin (300 µg/mL) was added to the culture, and the viability of the parasites was assessed by reading the luminescent signal on the GloMax reader (Promega Corporation, Madison, WI, USA). Controls were also performed in non-toxic concentrations of DMSO (≤ 1%). The concentration that reduces the number of viable parasites by 50% (IC50) or 90% (IC90) was calculated by linear regression. The selectivity index (SI) was calculated as CC50/IC50 for each parasite form.

`Nc1c(C2=NCCS2)cnn1-c1ccc(Cl)cc1Cl` [Compound 1c, 2-(5-amino-1-(2,4-dichlorophenyl)-1H-pyrazol-4-yl)-4,5-dihydrothiazole] and `Nc1c(C2=NCCS2)cnn1-c1ccc(F)cc1` [Compound 1g, 2-(5-amino-1-(4-fluorophenyl)-1H-pyrazol-4-yl)-4,5-dihydrothiazole] cannot be ordered by IC50: over 100 µM for the first, over 100 µM for the second.

Compared with `Brc1cccc(-n2cc(C3=NCCS3)cn2)c1` [Compound 2j, 2-(1-(3-bromophenyl)-1H-pyrazol-4-yl)-4,5-dihydrothiazole], `Nc1c(C2=NCCS2)cnn1-c1ccc(Br)cc1` [Compound 1i, 2-(5-amino-1-(4-bromophenyl)-1H-pyrazol-4-yl)-4,5-dihydrothiazole] is 5.4-fold higher in IC50: 9.1 ± 0.9 µM for the first, 49.3 ± 4.7 µM for the second. The first is the more potent here.

Same assay, conditions: Trypanosoma cruzi; Dm28c-Luc, 24 h, mean ± SD; read-out: Trypanocidal Activity Trypomastigotes IC90

`Nc1c(C2=NCCS2)cnn1-c1ccc(Cl)cc1Cl` [Compound 1c, 2-(5-amino-1-(2,4-dichlorophenyl)-1H-pyrazol-4-yl)-4,5-dihydrothiazole] and `Nc1c(C2=NCCS2)cnn1-c1ccc(F)cc1` [Compound 1g, 2-(5-amino-1-(4-fluorophenyl)-1H-pyrazol-4-yl)-4,5-dihydrothiazole] cannot be ordered by IC90: over 100 µM for the first, over 100 µM for the second.

Compared with `Brc1cccc(-n2cc(C3=NCCS3)cn2)c1` [Compound 2j, 2-(1-(3-bromophenyl)-1H-pyrazol-4-yl)-4,5-dihydrothiazole], `Nc1c(C2=NCCS2)cnn1-c1ccc(Br)cc1` [Compound 1i, 2-(5-amino-1-(4-bromophenyl)-1H-pyrazol-4-yl)-4,5-dihydrothiazole] is higher in IC90: 48.2 ± 4.1 µM for the first, over 100 µM for the second.

Same assay, conditions: selectivity index vs Vero cells

For `Nc1c(C2=NCCS2)cnn1-c1ccc(Cl)cc1Cl` [Compound 1c, 2-(5-amino-1-(2,4-dichlorophenyl)-1H-pyrazol-4-yl)-4,5-dihydrothiazole], the “Trypomastigotes SI (CC50 of Vero cells/IC50)” value (from here on “Trypomastigotes SI”) was under 5.
With `Nc1c(C2=NCCS2)cnn1-c1ccc(F)cc1` [Compound 1g, 2-(5-amino-1-(4-fluorophenyl)-1H-pyrazol-4-yl)-4,5-dihydrothiazole] the “Trypomastigotes SI” value was under 5.
In the case of `Nc1c(C2=NCCS2)cnn1-c1ccc(Br)cc1` [Compound 1i, 2-(5-amino-1-(4-bromophenyl)-1H-pyrazol-4-yl)-4,5-dihydrothiazole], the “Trypomastigotes SI” value is reported as over 10.1.

In the case of `Brc1cccc(-n2cc(C3=NCCS3)cn2)c1` [Compound 2j, 2-(1-(3-bromophenyl)-1H-pyrazol-4-yl)-4,5-dihydrothiazole], the “Trypomastigotes SI” value is reported as 7.11.

Tested on: T. cruzi (Dm28c-Luc) intracellular amastigotes
Experiment: Trypanocidal activity against intracellular amastigotes in infected Vero cell monolayers
Type: cell-based, Trypanosoma cruzi
Conditions: Dm28c-Luc in Vero cells, 72 h, mean ± SD; read-out: Trypanocidal Activity Intracellular Amastigotes IC50
Protocol: The susceptibility of intracellular amastigotes to pyrazole-thiazoline derivatives (series 1 and 2) was evaluated using 24 h T. cruzi-infected Vero cell monolayers (10:1 parasite/host cell ratio). Then, the cultures were washed with PBS to remove non-internalized parasites, and 200 μL of fresh medium with a serial dilution of pyrazole-thiazoline derivatives and Bz (0.41–100 µM) was added for 72 h at 37 °C.
as §1

Work on `Brc1cccc(-n2cc(C3=NCCS3)cn2)c1` [Compound 2j, 2-(1-(3-bromophenyl)-1H-pyrazol-4-yl)-4,5-dihydrothiazole] yielded an IC50 of 8.1 ± 1.3 µM.

Same assay, conditions: Trypanosoma cruzi, Vero, 72 h, Dm28c-Luc in Vero cells, 72 h, mean ± SD; read-out: Trypanocidal Activity Intracellular Amastigotes IC50

Compared with `Nc1c(C2=NCCS2)cnn1-c1ccc(Cl)cc1Cl` [Compound 1c, 2-(5-amino-1-(2,4-dichlorophenyl)-1H-pyrazol-4-yl)-4,5-dihydrothiazole], `Nc1c(C2=NCCS2)cnn1-c1ccc(F)cc1` [Compound 1g, 2-(5-amino-1-(4-fluorophenyl)-1H-pyrazol-4-yl)-4,5-dihydrothiazole] is lower in IC50: over 100 µM for the first, 96.3 ± 2.7 µM for the second.

First: Brc1cccc(-n2cc(C3=NCCS3)cn2)c1 [Compound 2j, 2-(1-(3-bromophenyl)-1H-pyrazol-4-yl)-4,5-dihydrothiazole]
Second: Nc1c(C2=NCCS2)cnn1-c1ccc(Br)cc1 [Compound 1i, 2-(5-amino-1-(4-bromophenyl)-1H-pyrazol-4-yl)-4,5-dihydrothiazole]
The IC50 of the first is lower: under 10 µM for the first, over 100 µM for the second.

Same assay, conditions: Trypanosoma cruzi, Vero, pIC50 = −log IC50, Dm28c-Luc clone; read-out: Intracellular Amastigotes pIC50 (converted)

Going from `Nc1c(C2=NCCS2)cnn1-c1ccc(Cl)cc1Cl` [Compound 1c, 2-(5-amino-1-(2,4-dichlorophenyl)-1H-pyrazol-4-yl)-4,5-dihydrothiazole] to `Nc1c(C2=NCCS2)cnn1-c1ccc(F)cc1` [Compound 1g, 2-(5-amino-1-(4-fluorophenyl)-1H-pyrazol-4-yl)-4,5-dihydrothiazole], the IC50 falls from over 100 µM to 97.7 µM.

First: Brc1cccc(-n2cc(C3=NCCS3)cn2)c1 [Compound 2j, 2-(1-(3-bromophenyl)-1H-pyrazol-4-yl)-4,5-dihydrothiazole]
Second: Nc1c(C2=NCCS2)cnn1-c1ccc(Br)cc1 [Compound 1i, 2-(5-amino-1-(4-bromophenyl)-1H-pyrazol-4-yl)-4,5-dihydrothiazole]
The IC50 of the first is lower: about 10 µM for the first, over 100 µM for the second.

Same assay, conditions: Trypanosoma cruzi; Dm28c-Luc in Vero cells, 72 h, mean ± SD; read-out: Trypanocidal Activity Intracellular Amastigotes IC90

`Nc1c(C2=NCCS2)cnn1-c1ccc(Cl)cc1Cl` [Compound 1c, 2-(5-amino-1-(2,4-dichlorophenyl)-1H-pyrazol-4-yl)-4,5-dihydrothiazole] and `Nc1c(C2=NCCS2)cnn1-c1ccc(F)cc1` [Compound 1g, 2-(5-amino-1-(4-fluorophenyl)-1H-pyrazol-4-yl)-4,5-dihydrothiazole] cannot be ordered by IC90: over 100 µM for the first, over 100 µM for the second.

Going from `Brc1cccc(-n2cc(C3=NCCS3)cn2)c1` [Compound 2j, 2-(1-(3-bromophenyl)-1H-pyrazol-4-yl)-4,5-dihydrothiazole] to `Nc1c(C2=NCCS2)cnn1-c1ccc(Br)cc1` [Compound 1i, 2-(5-amino-1-(4-bromophenyl)-1H-pyrazol-4-yl)-4,5-dihydrothiazole], the IC90 rises from 31.1 ± 3.1 µM to over 100 µM.

Same assay, conditions: selectivity index vs Vero cells

In the case of `Nc1c(C2=NCCS2)cnn1-c1ccc(Cl)cc1Cl` [Compound 1c, 2-(5-amino-1-(2,4-dichlorophenyl)-1H-pyrazol-4-yl)-4,5-dihydrothiazole], the “Intracellular Amastigotes SI (CC50 of Vero cells/IC50)” value (“Intracellular Amastigotes SI” below) is reported as under 5.
In the case of `Nc1c(C2=NCCS2)cnn1-c1ccc(Br)cc1` [Compound 1i, 2-(5-amino-1-(4-bromophenyl)-1H-pyrazol-4-yl)-4,5-dihydrothiazole], the “Intracellular Amastigotes SI” value is reported as under 5.

In order of falling “Intracellular Amastigotes SI” value:
1. Brc1cccc(-n2cc(C3=NCCS3)cn2)c1 [Compound 2j, 2-(1-(3-bromophenyl)-1H-pyrazol-4-yl)-4,5-dihydrothiazole]  7.9
2. Nc1c(C2=NCCS2)cnn1-c1ccc(F)cc1 [Compound 1g, 2-(5-amino-1-(4-fluorophenyl)-1H-pyrazol-4-yl)-4,5-dihydrothiazole]  5.6

Tested on: not listed separately
Experiment: Cytotoxicity in vitro assay (CellTiter-Glo)
Type: cell-based
Conditions: African green monkey, Vero cells, mean ± SD
Protocol: Vero cells, obtained from the Rio de Janeiro Cell Bank (BCRJ code 0245), were dissociated with trypsin–EDTA solution (0.025%), and maintained in RPMI 1640 medium supplemented with 10% fetal bovine serum (FBS) at 37 °C in a humidified atmosphere of 5% CO2.
The compound toxicity was evaluated in Vero cell cultures. Briefly, Vero cells were seeded in 96-well white culture plates at a density of 1.5 × 10^4 cells/well for 24 h at 37 °C and 5% CO2. Thereafter, the cell monolayers were washed with phosphate-buffered saline (PBS) and 200 μL of fresh medium with a serial dilution of the pyrazole-thiazoline derivatives and Bz (1.9–500 µM) added. The cell viability was determined by luminescent assay using the CellTiter-Glo Kit (Promega Corporation, Madison, WI, USA) based on the ATP level. After 72 h of treatment, 20 μL of CellTiter-Glo solution was added per well, and cultures were kept for 2 min under agitation. The luminescent signal was read on the GloMax reader (Promega Corporation, Madison, WI, USA). The concentration of compounds that reduced 50% of cell viability (CC50) was calculated by linear regression. At least three independent assays were performed in duplicate.

`Nc1c(C2=NCCS2)cnn1-c1ccc(Cl)cc1Cl` [Compound 1c, 2-(5-amino-1-(2,4-dichlorophenyl)-1H-pyrazol-4-yl)-4,5-dihydrothiazole] and `Nc1c(C2=NCCS2)cnn1-c1ccc(F)cc1` [Compound 1g, 2-(5-amino-1-(4-fluorophenyl)-1H-pyrazol-4-yl)-4,5-dihydrothiazole] cannot be ordered by CC50 at 72 h: over 50 µM for the first, 483 ± 16.6 µM for the second.

Compared with `Brc1cccc(-n2cc(C3=NCCS3)cn2)c1` [Compound 2j, 2-(1-(3-bromophenyl)-1H-pyrazol-4-yl)-4,5-dihydrothiazole], `Nc1c(C2=NCCS2)cnn1-c1ccc(Br)cc1` [Compound 1i, 2-(5-amino-1-(4-bromophenyl)-1H-pyrazol-4-yl)-4,5-dihydrothiazole] is higher in CC50 at 72 h: 64.5 ± 7.3 µM for the first, over 500 µM for the second.

Tested on: not given
Experiment: not given
Conditions: not given

First: Nc1c(C2=NCCS2)cnn1-c1ccc(Cl)cc1Cl [Compound 1c, 2-(5-amino-1-(2,4-dichlorophenyl)-1H-pyrazol-4-yl)-4,5-dihydrothiazole]
Second: Nc1c(C2=NCCS2)cnn1-c1ccc(F)cc1 [Compound 1g, 2-(5-amino-1-(4-fluorophenyl)-1H-pyrazol-4-yl)-4,5-dihydrothiazole]
The melting point of the first is lower: 209 to 212 °C for the first, 244 to 246 °C for the second.

First: Brc1cccc(-n2cc(C3=NCCS3)cn2)c1 [Compound 2j, 2-(1-(3-bromophenyl)-1H-pyrazol-4-yl)-4,5-dihydrothiazole]
Second: Nc1c(C2=NCCS2)cnn1-c1ccc(Br)cc1 [Compound 1i, 2-(5-amino-1-(4-bromophenyl)-1H-pyrazol-4-yl)-4,5-dihydrothiazole]
The melting point of the first is lower: 104 to 106 °C for the first, 282 to 284 °C for the second.
